Measurements as given in ChEMBL document CHEMBL1126845, “N-(carboxymethyl)-N-[3,5-bis(decyloxy)-phenyl]glycine (Ro 23-9358): a potent inhibitor of secretory phospholipases A2 with antiinflammatory activity” (J Med Chem, 1993).

Assays:
Format in all cases: functional
Rattus norvegicus [1] = species: Rattus norvegicus; assay: Paw volume in rat during treatment period
[2] = Tested for inhibitory activity against purified recombinant human placental PLA2 (r-hpPLA2)
[3] = target: T1, Phospholipase A2, membrane associated (Homo sapiens, UniProt P14555); assay: Tested for inhibitory activity against human synovial fluid PLA2 (HSF-PLA2)
T1 sequence (P14555 whole entry): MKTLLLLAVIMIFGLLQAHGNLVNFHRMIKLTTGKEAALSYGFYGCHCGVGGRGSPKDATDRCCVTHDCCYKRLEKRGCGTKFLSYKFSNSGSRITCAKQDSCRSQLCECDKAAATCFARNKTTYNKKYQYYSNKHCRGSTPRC

Rattus norvegicus [4] = assay: Paw swelling rats induced by Naja naja venom PLA2 when tested at 30 mg/kg ip; conditions: route intraperitoneal

Row | Compound | Paw volume (Rattus norvegicus [1]) [mL] | IC50 [2] [nM] | IC50 [3] [nM] | inhibition in vivo at 30 mg/kg (Rattus norvegicus [4]) [%]
1 | CCCCCCCCCCOc1cc(OCCCCCCCCCC)cc(N(CC(=O)O)CC(=O)O)c1 | 1 | 87 | 230 | 41
2 | CCCCCCCCCCOc1cc(OCCCCCCCCCC)cc(C(=O)O)c1 |  |  | 3000 | 
